Laboratory results reported in the kinase profiling compilation of Christmann-Franck et al. (2016).

What was measured:
Experiment in all cases: KINOMEscan competition binding
Conditions in all cases: compound 10.0 µM
MAP2K3 (human) = MAP2K3 (human) (UniProt P46734)
CSF1R (human) = CSF1R (human) (UniProt P07333)
[1] = system: PIK3CA (human), P42336 [H1047L]
CDK17 (human) = CDK17 (human) (UniProt Q00537)
CSNK1G2 (human) = CSNK1G2 (human) (UniProt P78368)
MST4 (human) = MST4 (human) (UniProt Q9P289)
PRPF4B (human) = PRPF4B (human) (UniProt Q13523)
Chain of PRPF4B (human) (Q13523 whole entry, looked up): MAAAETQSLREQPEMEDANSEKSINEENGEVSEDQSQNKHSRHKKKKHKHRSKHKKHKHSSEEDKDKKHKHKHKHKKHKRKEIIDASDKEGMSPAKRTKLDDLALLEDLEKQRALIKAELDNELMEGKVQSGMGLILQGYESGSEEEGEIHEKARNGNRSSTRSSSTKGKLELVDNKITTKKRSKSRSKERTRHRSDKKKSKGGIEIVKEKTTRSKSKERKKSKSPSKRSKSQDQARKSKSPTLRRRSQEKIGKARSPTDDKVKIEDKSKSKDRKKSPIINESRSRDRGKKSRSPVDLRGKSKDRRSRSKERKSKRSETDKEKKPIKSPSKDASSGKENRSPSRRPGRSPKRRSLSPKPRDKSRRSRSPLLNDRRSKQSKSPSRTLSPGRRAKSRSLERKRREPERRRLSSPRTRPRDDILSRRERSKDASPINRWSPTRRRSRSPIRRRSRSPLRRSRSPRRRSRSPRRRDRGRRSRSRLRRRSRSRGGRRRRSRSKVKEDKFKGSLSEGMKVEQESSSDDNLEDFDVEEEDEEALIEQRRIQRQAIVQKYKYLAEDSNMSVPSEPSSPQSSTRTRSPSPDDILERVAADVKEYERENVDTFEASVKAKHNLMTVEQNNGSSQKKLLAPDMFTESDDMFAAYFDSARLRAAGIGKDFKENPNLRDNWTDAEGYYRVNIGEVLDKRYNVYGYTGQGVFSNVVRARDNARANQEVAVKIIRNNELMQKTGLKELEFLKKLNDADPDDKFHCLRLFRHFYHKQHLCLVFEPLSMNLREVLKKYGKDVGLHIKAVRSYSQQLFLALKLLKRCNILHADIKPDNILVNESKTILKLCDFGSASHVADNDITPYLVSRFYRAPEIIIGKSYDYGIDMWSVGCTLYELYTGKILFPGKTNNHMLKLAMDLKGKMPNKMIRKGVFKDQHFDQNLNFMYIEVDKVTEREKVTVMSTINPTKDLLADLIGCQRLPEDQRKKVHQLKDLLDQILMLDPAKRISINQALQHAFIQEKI

MAP4K2 (human) = MAP4K2 (human) (UniProt Q12851)
PIP4K2B (human) = PIP4K2B (human) (UniProt P78356)
[2] = system: MET (human), P08581 [M1250T]
STK33 (human) = STK33 (human) (UniProt Q9BYT3)
MLTK (human) = MLTK (human) (UniProt Q9NYL2)
MAP4K1 (human) = MAP4K1 (human) (UniProt Q92918)
MYLK3 (human) = MYLK3 (human) (UniProt Q32MK0)
Chain of MYLK3 (human) (Q32MK0 whole entry, looked up): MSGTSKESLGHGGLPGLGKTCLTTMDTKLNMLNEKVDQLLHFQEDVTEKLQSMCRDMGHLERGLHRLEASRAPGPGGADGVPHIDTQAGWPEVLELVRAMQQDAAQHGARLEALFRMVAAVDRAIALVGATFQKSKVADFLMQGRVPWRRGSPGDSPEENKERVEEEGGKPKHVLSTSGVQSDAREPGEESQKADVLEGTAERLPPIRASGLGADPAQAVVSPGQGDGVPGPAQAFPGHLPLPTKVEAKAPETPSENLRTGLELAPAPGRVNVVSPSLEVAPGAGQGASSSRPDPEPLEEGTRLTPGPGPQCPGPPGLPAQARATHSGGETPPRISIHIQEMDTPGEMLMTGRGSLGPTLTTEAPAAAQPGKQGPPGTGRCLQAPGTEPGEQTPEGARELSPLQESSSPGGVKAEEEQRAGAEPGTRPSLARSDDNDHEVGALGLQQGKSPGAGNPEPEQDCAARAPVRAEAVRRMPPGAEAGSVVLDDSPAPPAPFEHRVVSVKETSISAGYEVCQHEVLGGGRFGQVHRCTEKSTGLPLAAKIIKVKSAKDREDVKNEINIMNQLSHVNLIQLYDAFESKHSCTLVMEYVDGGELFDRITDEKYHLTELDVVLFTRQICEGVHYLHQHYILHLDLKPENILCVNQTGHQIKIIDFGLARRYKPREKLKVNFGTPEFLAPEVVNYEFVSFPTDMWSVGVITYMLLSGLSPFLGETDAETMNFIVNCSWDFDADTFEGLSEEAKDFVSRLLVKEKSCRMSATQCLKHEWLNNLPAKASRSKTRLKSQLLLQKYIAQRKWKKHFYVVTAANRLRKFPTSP

ERBB2 (human) = ERBB2 (human) (UniProt P04626)
HIPK4 (human) = HIPK4 (human) (UniProt Q8NE63)
FLT4 (human) = FLT4 (human) (UniProt P35916)
LIMK1 (human) = LIMK1 (human) (UniProt P53667)
RET (human) = RET (human) (UniProt P07949)
DAPK3 (human) = DAPK3 (human) (UniProt O43293)
GAK (human) = GAK (human) (UniProt O14976)
BRSK2 (human) = BRSK2 (human) (UniProt Q8IWQ3)
FES (human) = FES (human) (UniProt P07332)
Chain of FES (human) (P07332 whole entry, looked up): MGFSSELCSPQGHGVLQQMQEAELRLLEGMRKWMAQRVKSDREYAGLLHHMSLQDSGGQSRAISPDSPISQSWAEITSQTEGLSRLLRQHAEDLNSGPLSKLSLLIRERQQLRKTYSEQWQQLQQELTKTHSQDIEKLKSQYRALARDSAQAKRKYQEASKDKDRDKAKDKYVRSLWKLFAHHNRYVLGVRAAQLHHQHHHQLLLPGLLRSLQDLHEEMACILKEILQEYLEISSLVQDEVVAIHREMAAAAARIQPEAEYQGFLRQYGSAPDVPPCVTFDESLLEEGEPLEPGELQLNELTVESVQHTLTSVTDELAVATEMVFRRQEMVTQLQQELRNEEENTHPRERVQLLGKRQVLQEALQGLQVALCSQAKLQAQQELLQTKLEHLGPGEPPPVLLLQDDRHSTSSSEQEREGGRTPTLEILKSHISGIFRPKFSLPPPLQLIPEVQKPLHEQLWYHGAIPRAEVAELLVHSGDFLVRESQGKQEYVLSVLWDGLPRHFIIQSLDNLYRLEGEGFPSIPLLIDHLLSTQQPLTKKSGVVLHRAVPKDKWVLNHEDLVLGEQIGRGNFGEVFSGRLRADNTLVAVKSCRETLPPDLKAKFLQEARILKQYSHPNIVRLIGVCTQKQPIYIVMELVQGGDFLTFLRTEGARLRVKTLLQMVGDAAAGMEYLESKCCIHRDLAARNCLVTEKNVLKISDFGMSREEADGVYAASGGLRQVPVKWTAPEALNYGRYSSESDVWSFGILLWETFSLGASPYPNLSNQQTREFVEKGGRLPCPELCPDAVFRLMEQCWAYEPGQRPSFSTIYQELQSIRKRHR

FGFR4 (human) = FGFR4 (human) (UniProt P22455)
PAK4 (human) = PAK4 (human) (UniProt O96013)
PDGFRA (human) = PDGFRA (human) (UniProt P16234)
PLK3 (human) = PLK3 (human) (UniProt Q9H4B4)
SIK1 (human) = SIK1 (human) (UniProt P57059)
GRK7 (human) = GRK7 (human) (UniProt Q8WTQ7)
Chain of GRK7 (human) (Q8WTQ7 whole entry, looked up): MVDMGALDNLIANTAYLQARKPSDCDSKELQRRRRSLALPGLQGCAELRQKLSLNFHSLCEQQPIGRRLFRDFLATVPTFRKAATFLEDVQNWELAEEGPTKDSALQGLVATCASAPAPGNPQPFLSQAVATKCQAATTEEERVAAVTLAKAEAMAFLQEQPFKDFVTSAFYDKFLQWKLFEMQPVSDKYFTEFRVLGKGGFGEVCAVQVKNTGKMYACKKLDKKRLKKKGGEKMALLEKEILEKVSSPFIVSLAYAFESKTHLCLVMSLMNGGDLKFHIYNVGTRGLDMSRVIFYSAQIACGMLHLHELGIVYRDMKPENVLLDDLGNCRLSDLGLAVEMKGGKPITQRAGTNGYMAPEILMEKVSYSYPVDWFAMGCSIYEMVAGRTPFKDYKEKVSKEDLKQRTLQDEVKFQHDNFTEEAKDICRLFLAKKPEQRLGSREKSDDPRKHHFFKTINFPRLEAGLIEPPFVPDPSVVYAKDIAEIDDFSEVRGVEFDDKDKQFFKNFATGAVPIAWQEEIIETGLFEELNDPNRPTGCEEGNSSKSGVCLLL

MAPK10 (human) = MAPK10 (human) (UniProt P53779)
MAPK9 (human) = MAPK9 (human) (UniProt P45984)
NTRK2 (human) = NTRK2 (human) (UniProt Q16620)
Chain of NTRK2 (human) (Q16620 whole entry, looked up): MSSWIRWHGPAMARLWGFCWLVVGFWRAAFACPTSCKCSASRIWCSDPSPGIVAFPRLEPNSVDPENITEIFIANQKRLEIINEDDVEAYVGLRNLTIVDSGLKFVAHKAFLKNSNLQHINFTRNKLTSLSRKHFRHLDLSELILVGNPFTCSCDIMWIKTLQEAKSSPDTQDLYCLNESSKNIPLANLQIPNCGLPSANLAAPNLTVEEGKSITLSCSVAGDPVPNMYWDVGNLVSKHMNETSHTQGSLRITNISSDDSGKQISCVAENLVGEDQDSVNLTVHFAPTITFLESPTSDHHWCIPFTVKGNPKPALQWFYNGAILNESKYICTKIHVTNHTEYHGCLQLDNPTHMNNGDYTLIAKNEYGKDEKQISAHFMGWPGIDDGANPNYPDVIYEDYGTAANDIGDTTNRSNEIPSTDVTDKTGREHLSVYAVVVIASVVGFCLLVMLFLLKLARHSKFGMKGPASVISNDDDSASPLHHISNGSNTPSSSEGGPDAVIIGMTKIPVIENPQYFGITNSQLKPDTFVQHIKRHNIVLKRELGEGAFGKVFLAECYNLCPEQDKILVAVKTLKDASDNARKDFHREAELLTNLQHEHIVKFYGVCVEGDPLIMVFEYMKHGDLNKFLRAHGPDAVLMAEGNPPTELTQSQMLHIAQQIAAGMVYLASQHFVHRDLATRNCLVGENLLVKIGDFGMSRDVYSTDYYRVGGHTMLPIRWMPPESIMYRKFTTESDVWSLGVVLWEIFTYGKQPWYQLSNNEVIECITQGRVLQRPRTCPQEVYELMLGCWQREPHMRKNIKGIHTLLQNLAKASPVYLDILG

MAP3K9 (human) = MAP3K9 (human) (UniProt P80192)
CDK14 (human) = CDK14 (human) (UniProt O94921)
GSK3A (human) = GSK3A (human) (UniProt P49840)
Chain of GSK3A (human) (P49840 whole entry, looked up): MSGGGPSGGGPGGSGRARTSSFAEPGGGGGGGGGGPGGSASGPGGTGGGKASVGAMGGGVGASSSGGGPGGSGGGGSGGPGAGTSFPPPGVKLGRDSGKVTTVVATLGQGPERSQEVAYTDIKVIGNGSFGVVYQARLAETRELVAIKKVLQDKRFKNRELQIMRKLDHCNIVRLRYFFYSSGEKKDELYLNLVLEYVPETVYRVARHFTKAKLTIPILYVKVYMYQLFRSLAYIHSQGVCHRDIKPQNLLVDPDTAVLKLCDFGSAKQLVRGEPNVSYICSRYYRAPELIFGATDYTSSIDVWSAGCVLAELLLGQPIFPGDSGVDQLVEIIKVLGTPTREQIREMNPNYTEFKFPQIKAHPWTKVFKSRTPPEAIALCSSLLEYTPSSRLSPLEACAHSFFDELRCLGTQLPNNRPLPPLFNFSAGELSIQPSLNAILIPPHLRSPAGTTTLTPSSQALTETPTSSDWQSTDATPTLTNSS

TBK1 (human) = TBK1 (human) (UniProt Q9UHD2)
MAP4K5 (human) = MAP4K5 (human) (UniProt Q9Y4K4)
STK39 (human) = STK39 (human) (UniProt Q9UEW8)
SGK3 (human) = SGK3 (human) (UniProt Q96BR1)
CDK13 (human) = CDK13 (human) (UniProt Q14004)

Chain of CSNK1G2 (human) (P78368 whole entry, looked up): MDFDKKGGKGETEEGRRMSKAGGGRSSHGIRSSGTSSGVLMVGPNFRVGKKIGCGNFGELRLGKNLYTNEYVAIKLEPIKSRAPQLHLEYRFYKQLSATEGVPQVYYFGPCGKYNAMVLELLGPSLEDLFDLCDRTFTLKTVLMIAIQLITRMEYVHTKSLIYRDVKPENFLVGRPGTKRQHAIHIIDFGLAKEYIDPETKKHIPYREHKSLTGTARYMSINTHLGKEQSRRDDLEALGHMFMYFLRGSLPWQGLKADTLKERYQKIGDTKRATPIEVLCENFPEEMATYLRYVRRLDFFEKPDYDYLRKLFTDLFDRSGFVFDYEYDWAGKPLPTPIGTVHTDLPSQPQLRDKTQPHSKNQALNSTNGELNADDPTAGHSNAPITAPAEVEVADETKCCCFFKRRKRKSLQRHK

| SMILES | kinase still bound, per cent of control (MAP2K3 (human)) | kinase still bound, per cent of control (CSF1R (human)) | kinase still bound, per cent of control [1] | kinase still bound, per cent of control (CDK17 (human)) | kinase still bound, per cent of control (CSNK1G2 (human)) | kinase still bound, per cent of control (MST4 (human)) | kinase still bound, per cent of control (PRPF4B (human)) | kinase still bound, per cent of control (MAP4K2 (human)) | kinase still bound, per cent of control (PIP4K2B (human)) | kinase still bound, per cent of control [2] | kinase still bound, per cent of control (STK33 (human)) | kinase still bound, per cent of control (MAP4K1 (human)) | kinase still bound, per cent of control (MYLK3 (human)) | kinase still bound, per cent of control (ERBB2 (human)) | kinase still bound, per cent of control (HIPK4 (human)) | kinase still bound, per cent of control (RET (human)) | kinase still bound, per cent of control (DAPK3 (human)) | kinase still bound, per cent of control (GAK (human)) | kinase still bound, per cent of control (BRSK2 (human)) | kinase still bound, per cent of control (FES (human)) | also measured |
| --- | --- | --- | --- | --- | --- | --- | --- | --- | --- | --- | --- | --- | --- | --- | --- | --- | --- | --- | --- | --- | --- |
| CCOc1cc(N2CCC(O)CC2)ccc1Nc1ncc2c(n1)N(C)c1ccccc1C(=O)N2C | 100% | 100% | 100% | 100% | 100% | 100% | 100% | 100% | 100% | 100% | 100% | 100% | 100% | 100% | 100% | 100% | 100% | 31% | 100% | 100% | kinase still bound, per cent of control (MLTK (human)): 100%; kinase still bound, per cent of control (FLT4 (human)): 100%; kinase still bound, per cent of control (LIMK1 (human)): 100%; kinase still bound, per cent of control (FGFR4 (human)): 100%; kinase still bound, per cent of control (PAK4 (human)): 100%; kinase still bound, per cent of control (PDGFRA (human)): 100%; kinase still bound, per cent of control (PLK3 (human)): 100%; kinase still bound, per cent of control (SIK1 (human)): 100%; kinase still bound, per cent of control (GRK7 (human)): 100%; kinase still bound, per cent of control (MAPK10 (human)): 100%; kinase still bound, per cent of control (MAPK9 (human)): 100%; kinase still bound, per cent of control (NTRK2 (human)): 100%; kinase still bound, per cent of control (MAP3K9 (human)): 100%; kinase still bound, per cent of control (CDK14 (human)): 100%; kinase still bound, per cent of control (GSK3A (human)): 100%; kinase still bound, per cent of control (TBK1 (human)): 100%; kinase still bound, per cent of control (MAP4K5 (human)): 100%; kinase still bound, per cent of control (STK39 (human)): 100% |
| CC(=O)c1c(C)c2cnc(Nc3ccc(N4CCNCC4)cn3)nc2n(C2CCCC2)c1=O | 19% | 50% | 25% | 2.7% | 92% | 26% | 78% | 52% | 18% | 41% | 24% | 47% | 7.6% | 79% | 6% | 71% | 0.45% | 4.4% | 80% | 80% | kinase still bound, per cent of control (SGK3 (human)): 53%; kinase still bound, per cent of control (PLK3 (human)): 19%; kinase still bound, per cent of control (SIK1 (human)): 90%; kinase still bound, per cent of control (GRK7 (human)): 13%; kinase still bound, per cent of control (MAPK10 (human)): 0.35%; kinase still bound, per cent of control (MAPK9 (human)): 0.5%; kinase still bound, per cent of control (NTRK2 (human)): 12%; kinase still bound, per cent of control (MAP3K9 (human)): 78%; kinase still bound, per cent of control (CDK14 (human)): 5%; kinase still bound, per cent of control (CDK13 (human)): 47%; kinase still bound, per cent of control (GSK3A (human)): 50%; kinase still bound, per cent of control (TBK1 (human)): 47%; kinase still bound, per cent of control (STK39 (human)): 6.8% |
